Data from PMC12530846, “Development of Novel Anticancer Pyrazolopyrimidinones Targeting Glioblastoma” (Chemmedchem, 2025).

Columns and labels:
Assay type in all cases: cell-based, human
HEK293 cells = assay: MTT cell viability assay, noncancerous HEK293 cells, 5 days treatment; conditions: for cytotoxicity / biological response in HEK293, in words: 5 days, up to 100 µM, threshold 50 µM; for IC50: 5 days treatment, 100–0 µM
Experimental: (§1) Dose–response curves for each of the pyrazolo[1,5‐α]pyrimidinones were performed to determine the cytotoxic effect of the compounds on a cancerous, U‐251 MG cell line and a noncancerous, HEK293 cell line. The synthesized pyrazolopyrimidinones were dissolved in DMSO (Merck) to obtain a stock solution which was stored at −20 °C. […] U‐251 MG and HEK293 cells were seeded at a density of 2 x 10^3 cells per well (100 μL) in a 96‐well plate (Sarstedt) and incubated for 24 h prior to each treatment to allow for cell adhesion. The stock solution was diluted in media to working concentrations of 100, 75, 50, 25, 10, 5, and 0.1 μM. Media on the seeded cells was then replaced with the working concentrations of the compound or the controls in a 96‐well plate (100 μL). The treated plate was incubated at 37 °C in the humidified incubator for 5 days. Cell viability was assessed after 5 days using the MTT assay. Dose–response curves were then plotted relative to the positive control whereby cells were treated 20% DMSO and a negative control whereby cells were maintained in fresh DMEM.
(§2) To determine the extent of the cytotoxic effect of the pyrazolopyrimidinone on each cell line, the cell viability at each working concentration was determined via the MTT assay (Merck). The working solution of MTT used was 5 mg MTT per 1 ml of PBS diluted in 9 ml of media. After 5 days of incubation, the treatment was removed from each of the wells and replaced with 100 μL of fresh MTT solution. The plate was then incubated for 3 h at 37 °C in a humidified incubator to allow the reduction of the yellow tetrazolium salt to purple formazan crystals. After the incubation, the MTT solution was removed from the wells and replaced with 100 μL of DMSO for 15 min to dissolve the formazan crystals. The absorbance was read at 570 nm using a spectrophotometric microplate reader (Thermo Fisher Scientific).
(§3) Each of the experiments was performed at least three independent times, with a minimum of six technical replicates per experiment. Statistical analysis was carried out using GraphPad Prism version 8.0.0 (GraphPad Softwares, Inc.). Curve fitting and the IC50 values were obtained through the dose–response curves using nonlinear regression. To determine if the dose–response curves were statistically distinct and not overlapping, extra sum‐of‐squares F‐test was used, and a p‐value was obtained. The effect of compound treatment on both cell lines was statistically compared via two‐way ANOVA with Tukey's post‐test. The CytExpert (Beckman Coulter) software was used for flow cytometry analysis. Graphs represent the % dead cells whereby the total number of dead cells was divided by the total cell population. The statistical significance of the flow cytometry results was determined via one‐way analysis of variance (ANOVA) with Dunnett's T3 multiple comparison post‐test. Data is presented as the mean ± standard error of mean (SEM). Summary of results from statistical analysis reports p‐values as follows: ≥0.05 (ns), 0.01–0.05 (*), 0.001–0.01 (**), […], and <0.0001(****).

U‐251 MG cells [1] = assay: Propidium iodide (PI) flow cytometry, cell membrane permeabilization; conditions: 5 days; for PI: significance of cell death, Neg Ctrl v HNT: highest non-toxic concentration
Experimental: Propidium iodide (PI) is a DNA staining, cell membrane impermeable dye which was used to assess cell death via loss of membrane integrity and is used to indicate necrotic or late apoptotic cells. Stock solutions of PI dye (Merck, Ireland) were prepared at 10 μg/mL in PBS and stored at −20 °C. U‐251 MG cells were seeded in 96‐well plates at a seeding density of 2 x 10^3 cells per well (100 μL), as previously stated. […] Subsequently, the compound was collected in 15 ml falcon tubes. Cells were washed with PBS (100 μL), and the PBS was collected in corresponding tubes to ensure all cells are collected. The cells were collected using 0.25% trypsin‐EDTA (50 μL) with a 6‐min incubation and media neutralization (100 μL). Each tube was centrifuged at 1200rpm for 5 min to obtain a pellet. The supernatant was removed, and the pellet was resuspended in PBS and transferred to an Eppendorf tube. Ten microliters of PI stain (2.5 μg/ml) was added to the Eppendorf tubes, and the tubes were incubated for a period of 15 min. Cells were also treated using controls whereby the positive control used was DMEM and 20% DMSO and the negative control used was fresh media. The cells were then analyzed using flow cytometry (Beckmann Coulter, CytExpert version 2.4.0.28). Fluorescence was measured using the FL2 channel. PI was detected in the red channel which is R‐phycoerythrin (PE‐Cy5). PE was used in combination with fluorescein isothiocyanate (FITC) and is excited at a wavelength of 488 nm.
as §3

U‐251 MG cells [2] = assay: JC‐1 flow cytometry, mitochondrial membrane depolarization / apoptosis; conditions: 5 days; for apoptosis observed (JC-1): example analysis, negative control 8.64 %; for JC-1: significance of cell death, Neg Ctrl v HNT / JC-1: significance of cell death, Neg Ctrl v 50 µM: U‐251 MG; for JC-1: significance of cell death, Neg Ctrl v 50 µM: highest toxic concentration 50 µM
Experimental: JC‐1 dye forms aggregates in healthy mitochondria which changes the fluorescent property of the dye. […] Stock solutions of JC‐1 dye (Merck) were prepared at 1 mg/mL in DMSO and stored at −20 °C. U‐251 MG cells were seeded in 6‐well plates (Sarstedt) at a seeding density of 2 x 10^4 cells per well (1000μL) after which cells were treated with drug concentrations (highest toxic, IC50, nontoxic). After 5 days incubation, the compound and wash step with PBS was collected in falcon tubes. The cells were then harvested by trypsinization (500 μL), incubated for a period of 6 min, neutralized with media (1000 μL), and pelleted at 1200rpm for 5 min. A JC‐1 working solution of 2 μg/mL was made up in DMEM and was light protected. The cell pellet was resuspended and stained with 2 μg/mL JC‐1 dye and incubated and protected from the light for a period of 10 min. Cells were then centrifuged at 1200rpm for 5 min. The supernatant was removed, and cells were washed with 1 mL of sterile PBS. This was repeated twice. […] Cells were also treated using controls whereby the positive control used was DMEM and 20% DMSO and the negative control used was fresh media. The cells were then analyzed using flow cytometry (Beckmann Coulter, CytExpert version 2.4.0.28). Fluorescence was measured using FL1 (FITC) (530 nm) and FL2 (PE) (595 nm) channels with emission.
as §3

[3] = test system: U‐251 MG and HEK293 cells; assay: Statistical comparison of dose–response in U‐251 MG versus HEK293 (selectivity, HIT criteria); conditions: for Selectivity for cancer cells with IC50 < 50 [µM]‐Yes/No: HEK293 IC50 higher than U‐251 MG IC50, U‐251 MG IC50 below 50 µM; for All criteria met -Yes/No: HIT criteria and statistical testing, Table S1
U‐251 MG cells [4] = assay: MTT cell viability assay, U‐251 MG glioblastoma cells, 5 days treatment; conditions: for cytotoxicity / biological effect on U‐251 MG, in words: 5 days, up to 100 µM; for IC50: 5 days treatment, 100–0 µM
Experimental: as §1, §2, §3

[5] = highest non-toxic concentration

| Compound | cytotoxicity / biological response in HEK293, in words (HEK293 cells) | Selectivity for cancer cells with IC50 < 50 [µM]‐Yes/No [3] | All criteria met -Yes/No [3] | IC50 (HEK293 cells; Homo sapiens, HEK293, 120 h) | IC50 (U‐251 MG cells [4]; Homo sapiens, U-251, 120 h) | IC50 (U‐251 MG cells [4]) | also measured |
| --- | --- | --- | --- | --- | --- | --- | --- |
| O=c1cc(-c2cc(C(F)(F)F)cc(C(F)(F)F)c2)[nH]c2cc(-c3ccccc3)nn12 [Compound 5] | did not elicit any biological response | Yes | Yes | – | – | – | cell membrane permeabilization‐dependent cell death (PI), in words (U‐251 MG cells [1]): did not induce cell death by cell wall permeabilization; apoptosis observed (JC-1) (U‐251 MG cells [2]; IC50 concentration): 15.55%; apoptosis observed (JC-1) (U‐251 MG cells [2]; [5]): 14.34%; apoptosis observed (JC-1) (U‐251 MG cells [2]; highest toxic concentration): 52.97% |
| Cc1cc(C)cc(-c2cc(=O)n3nc(C(C)C)cc3[nH]2)c1 [Compound 3] | – | No | – | 6.52 µM | – | – | – |
| Cc1cc(=O)n2nc(C(C)C)cc2[nH]1 [Compound 1] | – | No | – | – | – | – | – |
| O=c1cc(-c2cc(C(F)(F)F)cc(C(F)(F)F)c2)[nH]c2cc(-c3ccco3)nn12 [Compound 13] | no cytotoxicity | – | No | – | – | – | cytotoxicity / biological effect on U‐251 MG, in words (U‐251 MG cells [4]): no cytotoxicity |
| CCc1cc(=O)n2nc(C(C)C)cc2[nH]1 [Compound 19] | – | – | No | – | 154 µM | – | – |
| O=c1cc(-c2cc(C(F)(F)F)cc(C(F)(F)F)c2)[nH]c2cc(-c3ccccc3Br)nn12 [Compound 22] | – | Yes | Yes | 66.9 µM | 2.79 µM | 2.79 µM | cell membrane permeabilization‐dependent cell death (PI), in words (U‐251 MG cells [1]): significant cell membrane permeabilization‐dependent cell death; PI: significance of cell death, Neg Ctrl v 50 µM (U‐251 MG cells [1]; highest toxic concentration 50 µM): **** (<0.0001(****)); JC-1: significance of cell death, Neg Ctrl v HNT (U‐251 MG cells [2]; [5]): ns (≥0.05 (ns)); JC-1: significance of cell death, Neg Ctrl v 50 µM (U‐251 MG cells [2]): * (0.01 to 0.05 (*)) |
| O=c1cc(-c2cc(C(F)(F)F)cc(C(F)(F)F)c2)[nH]c2cc(-c3ccc(Cl)cc3)nn12 [Compound 8] | did not elicit any biological response | Yes | – | > 50 µM | < 30 µM | 17.3 µM | IC50 (HEK293 cells): 52.4 µM |
| O=c1cc(-c2cc(C(F)(F)F)cc(C(F)(F)F)c2)[nH]c2cc(-c3cccc(Cl)c3)nn12 [Compound 12] | – | – | No | < 30 µM | 21.7 µM | – | IC50 (HEK293 cells): 29.5 µM |
| CC(C)(C)c1cc2[nH]c(-c3ccccc3)cc(=O)n2n1 [Compound 17] | – | – | No | – | 76.6 µM | – | – |
| O=c1cc(-c2cc(C(F)(F)F)cc(C(F)(F)F)c2)[nH]c2cc(-c3ccc(Br)cc3)nn12 [Compound 7] | did not elicit any biological response | Yes | Yes | > 50 µM | < 50 µM | 29.8 µM | IC50 (HEK293 cells): 60.9 µM; cell membrane permeabilization‐dependent cell death (PI), in words (U‐251 MG cells [1]): significant cell membrane permeabilization‐dependent cell death; PI: significance of cell death, Neg Ctrl v HNT (U‐251 MG cells [1]): * (0.01 to 0.05 (*)); JC-1: significance of cell death, Neg Ctrl v HNT (U‐251 MG cells [2]; [5]): ns (≥0.05 (ns)); JC-1: significance of cell death, Neg Ctrl v 50 µM (U‐251 MG cells [2]): **** (<0.0001(****)) |
| CC(C)c1cc2[nH]c(C(C)C)cc(=O)n2n1 [Compound 18] | – | No | No | 118 µM | 170 µM | – | – |
| Cc1cc2[nH]c(C)cc(=O)n2n1 [Compound 16] | – | – | No | – | – | – | – |
| CC(C)c1cc2[nH]c(-c3cc(C(F)(F)F)cc(C(F)(F)F)c3)cc(=O)n2n1 [Compound 4] | – | No | – | 7.38 µM | < 20 µM | 14 µM | – |
| COc1ccc(-c2cc3[nH]c(-c4cc(C(F)(F)F)cc(C(F)(F)F)c4)cc(=O)n3n2)cc1 [Compound 11] | – | No | No | < 30 µM | 23.5 µM | – | IC50 (HEK293 cells): 29.5 µM |
| O=c1cc(-c2cc(C(F)(F)F)cc(C(F)(F)F)c2)[nH]c2cc(-c3cccc(C(F)(F)F)c3)nn12 [Compound 20] | – | – | No | – | 31 µM | – | – |
| O=c1cc(-c2cc(C(F)(F)F)cc(C(F)(F)F)c2)[nH]c2cc(-c3cccc([N+](=O)[O-])c3)nn12 [Compound 23] | – | Yes | – | 60.3 µM | 29.6 µM | 23.2 µM | – |
| CC(C)c1cc2[nH]c(-c3ccccc3)cc(=O)n2n1 [Compound 2] | – | No | – | 9.8 µM | < 20 µM | 20.6 µM | – |
| Cc1cc(=O)n2nc(-c3ccccc3)cc2[nH]1 [Compound 14] | did not elicit a biological effect | – | No | – | 81.5 µM | – | cytotoxicity / biological effect on U‐251 MG, in words (U‐251 MG cells [4]): did not elicit a biological effect |
| O=c1cc(-c2cc(C(F)(F)F)cc(C(F)(F)F)c2)[nH]c2cc(-c3ccc(F)cc3)nn12 [Compound 6] | – | No | – | 68.2 µM | 52.2 µM | – | – |
| O=c1cc(-c2cc(C(F)(F)F)cc(C(F)(F)F)c2)[nH]c2cc(-c3ccc([N+](=O)[O-])cc3)nn12 [Compound 10] | did not elicit any biological response | Yes | Yes | > 50 µM | – | – | IC50 (HEK293 cells): 73.8 µM; cell membrane permeabilization‐dependent cell death (PI), in words (U‐251 MG cells [1]): significant cell membrane permeabilization‐dependent cell death; PI: significance of cell death, Neg Ctrl v HNT (U‐251 MG cells [1]): ns (≥0.05 (ns)); JC-1: significance of cell death, Neg Ctrl v HNT (U‐251 MG cells [2]; [5]): * (0.01 to 0.05 (*)); JC-1: significance of cell death, Neg Ctrl v 50 µM (U‐251 MG cells [2]): *** (0.001 to 0.01(***)) |
